Data on 19 compounds can be found in PubChem BioAssay AID296 (DTP/NCI, 2004).

The test system of the assay is MX-1 breast xenograft, nude mice, tumor weight T/C. As to the kind of experiment: NCI In Vivo Anticancer Drug Screen. Data for tumor model Human Mammary Carcinoma MX-1 Xenograft (intrarenal inoculation) in NU/NU Swiss (nude) mice. The note with it: endpoint: mean tumor weight change, higher = larger tumour. A digest of the protocol: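 Antitumour effect measured in vivo against vehicle controls, expressed as T/C.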
On the technique in general: In xenograft studies the graft and the host belong to different species.

Where [1] appears, read: dose: 600.0 mg/kg/injection, schedule: Q04DX003 (sc), vehicle: saline with Tween-80.
Setting [2] is: dose: 300.0 mg/kg/injection, schedule: Q04DX003 (sc), vehicle: Klucel (hydroxypropylcellulose) (HPC).
Setting [3] is: dose: 300.0 mg/kg/injection, schedule: Q04DX003 (sc), vehicle: saline.
Setting [4] is: dose: 600.0 mg/kg/injection, schedule: Q04DX003 (sc), vehicle: saline.
Where [5] appears, read: dose: 1200.0 mg/kg/injection, schedule: Q04DX003 (sc), vehicle: saline.
The mark [6] stands for this setting: dose: 75.0 mg/kg/injection, schedule: Q04DX003 (sc), vehicle: saline with Tween-80.
[7] abbreviates: dose: 150.0 mg/kg/injection, schedule: Q04DX003 (sc), vehicle: saline with Tween-80.
The mark [8] stands for this setting: dose: 300.0 mg/kg/injection, schedule: Q04DX003 (sc), vehicle: saline with Tween-80.
Where [9] appears, read: dose: 2400.0 mg/kg/injection, schedule: Q04DX003 (sc), vehicle: saline with Tween-80.
Setting [10] is: dose: 75.0 mg/kg/injection, schedule: Q04DX003 (sc), vehicle: water.
Where [11] appears, read: dose: 150.0 mg/kg/injection, schedule: Q04DX003 (sc), vehicle: water.
Setting [12] is: dose: 300.0 mg/kg/injection, schedule: Q04DX003 (sc), vehicle: water.
Where [13] appears, read: dose: 1200.0 mg/kg/injection, schedule: Q04DX003 (sc), vehicle: saline with Tween-80.

Where “and” joins values, the source holds several entries; their conditions need not be identical. Equal values may be shown once. Inconclusive results are not listed.

With `CC(C)[NH-].CC(C)[NH-].O.O.[Cl][Pt+2][Cl]`, the T/C runs as follows: (dose: 3.12 mg/kg/injection, schedule: Q01DX010 (sc), vehicle: dextrose) 80 % of control and 97 % of control; (dose: 6.25 mg/kg/injection, schedule: Q01DX010 (sc), vehicle: dextrose) 7 % of control and 22 % of control; (dose: 25.0 mg/kg/injection, schedule: Q01DX010 (sc), vehicle: dextrose) -89 % of control.
For `S=C=NCCc1ccccc1`, the T/C was 161 % of control (dose: 25.0 mg/kg/injection, schedule: Q01DX010 (sc), vehicle: saline with Tween-80); 156 % of control (dose: 50.0 mg/kg/injection, schedule: Q01DX010 (sc), vehicle: saline with Tween-80); 72 % of control (dose: 100.0 mg/kg/injection, schedule: Q01DX010 (sc), vehicle: saline with Tween-80); 113 % of control (dose: 200.0 mg/kg/injection, schedule: Q01DX010 (sc), vehicle: saline with Tween-80).
For the compound `CN(C)c1nc(N(C)C)nc(N(C)C)n1`, the T/C is, setting by setting: (dose: 25.0 mg/kg/injection, schedule: Q01DX010 (sc), vehicle: Klucel (hydroxypropylcellulose) (HPC)) 5 % of control; (dose: 50.0 mg/kg/injection, schedule: Q01DX010 (sc), vehicle: Klucel (hydroxypropylcellulose) (HPC)) 21 % of control; (dose: 100.0 mg/kg/injection, schedule: Q01DX010 (sc), vehicle: Klucel (hydroxypropylcellulose) (HPC)) -82 % of control; under setting [1], -87 % of control and -100 % of control.
As to `Cc1ccc(S(=O)(=O)OCOS(=O)(=O)c2ccc(C)cc2)cc1`, the T/C under setting [2] is 89 % of control; the T/C (dose: 600.0 mg/kg/injection, schedule: Q04DX003 (sc), vehicle: Klucel (hydroxypropylcellulose) (HPC)) was 98 % of control; the T/C (dose: 1200.0 mg/kg/injection, schedule: Q04DX003 (sc), vehicle: Klucel (hydroxypropylcellulose) (HPC)) was 85 % of control; the T/C (dose: 2400.0 mg/kg/injection, schedule: Q04DX003 (sc), vehicle: Klucel (hydroxypropylcellulose) (HPC)) is 63 % of control.
`O=c1ncccn1[C@@H]1O[C@H](CO)[C@H](O)C1O` (some centres undefined): the T/C is, setting by setting: (dose: 150.0 mg/kg/injection, schedule: Q04DX003 (sc), vehicle: saline) 114 % of control; under setting [3], 156 % of control; under setting [4], 160 % of control; under setting [5], 108 % of control.
Take `Cn1c2ccccc2c2ccc3c(c21)C(=O)C=CC3=O`: the T/C runs as follows: under setting [6], 62 % of control; under setting [7], 61 % of control; under setting [8], 117 % of control; under setting [1], 88 % of control.
For the compound `CC(=O)O[C@H]1C(=O)[C@@]2(C)[C@H]([C@H](OC(=O)c3ccccc3)[C@]3(O)C[C@H](OC(=O)[C@H](O)[C@@H](NC(=O)c4ccccc4)c4ccccc4)C(C)=C1C3(C)C)[C@]1(OC(C)=O)CO[C@@H]1C[C@@H]2O`, the T/C is, setting by setting: (dose: 2.5 mg/kg/injection, schedule: Q01DX010 (sc), vehicle: Klucel (hydroxypropylcellulose) (HPC)) 83 % of control; (dose: 5.0 mg/kg/injection, schedule: Q01DX010 (sc), vehicle: Klucel (hydroxypropylcellulose) (HPC)) 77 % of control; (dose: 10.0 mg/kg/injection, schedule: Q01DX010 (sc), vehicle: Klucel (hydroxypropylcellulose) (HPC)) 46 % of control; (dose: 20.0 mg/kg/injection, schedule: Q01DX010 (sc), vehicle: Klucel (hydroxypropylcellulose) (HPC)) 73 % of control; (dose: 40.0 mg/kg/injection, schedule: Q01DX010 (sc), vehicle: Klucel (hydroxypropylcellulose) (HPC)) 48 % of control; (dose: 80.0 mg/kg/injection, schedule: Q01DX010 (sc), vehicle: Klucel (hydroxypropylcellulose) (HPC)) 36 % of control. Besides, for the setting “dose: 400.0 mg/kg/injection, schedule: Q01DX010 (sc), vehicle: Klucel (hydroxypropylcellulose) (HPC)”, the T/C was 6 % of control.
On to `Cc1cc(O)c(N=Nc2ccc(C(=O)O)cc2)cc1C`, for which the T/C by setting is: under setting [8], 123 % of control; under setting [1], 124 % of control; under setting [9], 92 % of control.
With `CNC(=O)SCC(N)C(=O)O` (centres undefined), the T/C was 86 % of control (dose: 112.5 mg/kg/injection, schedule: Q04DX003 (ip), vehicle: saline); 67 % of control (dose: 225.0 mg/kg/injection, schedule: Q04DX003 (ip), vehicle: saline); 27 % of control (dose: 450.0 mg/kg/injection, schedule: Q04DX003 (ip), vehicle: saline); 17 % of control (dose: 900.0 mg/kg/injection, schedule: Q04DX003 (ip), vehicle: saline).
Consider `N=C(N)c1ccc(/C=C/c2ccc(C(=N)N)cc2O)cc1`, for which the T/C reads like this: (dose: 37.5 mg/kg/injection, schedule: Q04DX003 (sc), vehicle: water) 87 % of control; under setting [10], 83 % of control; under setting [11], 89 % of control; under setting [12], 77 % of control.
Turning to `CCC[CH2][Hg][Cl]`, the T/C (dose: 9.38 mg/kg/injection, schedule: Q04DX003 (sc), vehicle: Klucel (hydroxypropylcellulose) (HPC)) is 74 % of control; the T/C (dose: 18.75 mg/kg/injection, schedule: Q04DX003 (sc), vehicle: Klucel (hydroxypropylcellulose) (HPC)) is 61 % of control; the T/C (dose: 37.5 mg/kg/injection, schedule: Q04DX003 (sc), vehicle: Klucel (hydroxypropylcellulose) (HPC)) was 46 % of control.
`CC/C(=C(/CC)c1ccc(O)cc1)c1ccc(O)cc1`: the T/C by setting is: under setting [6], 66 % of control; under setting [7], 47 % of control; under setting [8], 48 % of control; under setting [1], 55 % of control.
With `CC(C)NC(=O)N(CCCCBr)N=O`, the T/C was 42 % of control and 47 % of control (dose: 75.0 mg/kg/injection, schedule: Q04DX003 (sc), vehicle: Klucel (hydroxypropylcellulose) (HPC)); 40 % of control under setting [2].
Take `OCCCN1CCCCC1CO` (centres undefined): the T/C by setting is: under setting [3], 85 % of control; under setting [4], 84 % of control; under setting [5], 98 % of control.
As to `COc1ccc(OC)c(Cc2cnc3nc(N)nc(N)c3c2C)c1`, the T/C is, setting by setting: under setting [10], 73 % of control; under setting [11], 56 % of control; under setting [12], 53 % of control; (dose: 600.0 mg/kg/injection, schedule: Q04DX003 (sc), vehicle: water) 62 % of control.
Consider `N=C(N)Sc1ccccn1`, for which the T/C (dose: 25.0 mg/kg/injection, schedule: Q01DX010 (sc), vehicle: saline) was 182 % of control.
As to `ClC(Cl)(Cl)C1=NCc2nnn(Cc3ccccc3)c2N1`, the T/C was 92 % of control under setting [8], 61 % of control under setting [1], 66 % of control under setting [13] and 101 % of control under setting [9].
On to `CC(Oc1ccccc1-c1ccccc1)C(=O)N(C)C` (centres undefined), for which the T/C runs as follows: under setting [8], 82 % of control; under setting [1], 102 % of control; under setting [13], 114 % of control; under setting [9], 60 % of control.
With `OC(CCl)CN1CC[N+]2(CC1)CC[N+]1(CCN(CC(O)CCl)CC1)CC2` (centres undefined), the T/C is 117 % of control (dose: 8.0 mg/kg/injection, schedule: Q01DX010 (sc), vehicle: water); 90 % of control (dose: 32.0 mg/kg/injection, schedule: Q01DX010 (ip), vehicle: water); 88 % of control (dose: 64.0 mg/kg/injection, schedule: Q01DX010 (ip), vehicle: water); 92 % of control and 94 % of control (dose: 64.0 mg/kg/injection, schedule: Q01DX010 (sc), vehicle: water); 30 % of control (dose: 106.66 mg/kg/injection, schedule: Q04DX003 (ip), vehicle: water); 45 % of control (dose: 106.66 mg/kg/injection, schedule: Q04DX003 (sc), vehicle: water). Also, the T/C is, setting by setting: (dose: 128.0 mg/kg/injection, schedule: Q01DX010 (ip), vehicle: water) 21 % of control; (dose: 213.33 mg/kg/injection, schedule: Q04DX003 (ip), vehicle: water) 52 % of control; (dose: 213.33 mg/kg/injection, schedule: Q04DX003 (sc), vehicle: water) 59 % of control; (dose: 256.0 mg/kg/injection, schedule: Q01DX010 (ip), vehicle: water) 27 % of control; (dose: 426.65 mg/kg/injection, schedule: Q04DX003 (ip), vehicle: water) 26 % of control; (dose: 426.65 mg/kg/injection, schedule: Q04DX003 (sc), vehicle: water) 49 % of control. Moreover, the T/C (dose: 512.0 mg/kg/injection, schedule: Q01DX010 (sc), vehicle: water) was 25 % of control.
